Data taken from patent US20180178043A1, “FOCUSTED ULTRASOUND HYPERTHERMIA” (KING'S COLLEGE LONDON, priority 2015, published 2018).
Values joined by “and” are separate entries in the source; they are usually repeats but may differ in a detail not shown here. Equal entries are not always repeated. Each block holds one compound with its values, some of them ahead of it.

What was measured:
[1] = 7T MRI T1/T2 assessment of liposome samples and controls; type: physicochemical; parameters: r1 (relaxometry value): unit not given here; settings: for T1 (s) 1param / T1 (s) 3param / T1 (s) ImageJ / T2 (s) 1param / T2 (s) ImageJ / T2 (s) 3param: 7 T
Source text: A series of MRI T1/T2 assessment studies have been carried out using a 7 T pre-clinical MRI scanner, with the assistance of Dr Po-Wah So (James Black Centre, KCL). The focus here has been to derive reliable r1/r2 relaxivities per molar Gd(III) for liposome produced using the [Gd]DOTA.DSA, [Gd]DOTA.Ahx.DSA and [Gd]DOTA.Aoc.DSA. This is reliant on both accurate measurements of the T1/T2 effects and also the exact gadolinium concentration in the prepared liposome suspensions. The extrusion and gel filtration processes make this latter hard to estimate, so Inductively Coupled Plasma Mass Spectrometry (ICP-MS) quantification is being assessed. This is turn required testing of suitable acid digestion conditions since the lipid-chelates may not be analysed directly. For both MRI and ICP-MS, commercial Gadovist is being used a positive control contrast agent of known Gd content. Assessment of temperature, buffer salt and liposome size effects on T1/T2 are also underway.
FIGS. 22 and 23 show Example T1 and T2 brightness traces for controls and liposome samples.
Comparison of liposomes containing different lipids as measured at 7T Magnet*.

[2] = Pharmacokinetics of topotecan in blood, quantification by HPLC; type: in vivo, Balb C Mice
Procedure: Balb C Mice were injected with IgFUS-TNPs encapsulating topotecan (8 mg/kg per mouse body weight) and drug pharmacokinetics monitored by blood sample analyses. Blood samples (50-100 μL) were collected at time intervals (2 min-4 h) and transferred into pre-weighed plastic vials containing heparin (5 uL). Cold methanol (100 μL) was added to each and the mixed samples stored over dry ice or at −20° C. until required. After thawing, each vial was weighed again and the difference used to estimate then original sample volume. […] Batches of 5 samples were analysed three times using an Agilent 1100 HPLC equipped with a cooled sample chamber (8-12° C.), a guarded Thermo Hypersil 30×4.6 mm, 5 μm C18 column, a Diode Array Detector (UV/vis absorbance) and an Agilent 1260 Infinity fluorescence detector. […] Detection was by absorbance (210/254/280 nm for proteins and other biologicals; 380 nm for topotecan; all using a bandwidth of 8 nm c.p. reference at 700 nm) and fluorescence (Ex 400 nm; Em 545 nm; PMT-gain 18). Injections were 5-20 μL depending on the sample concentrations and quantifications were calculated from the fluorescence peak areas after calibration (the detector response was effectively linear over the sensitive range). Topotecan could be reliably identified even at extremely low concentrations (10-20 ng/mL) by its intrinsic fluorescence and retention time (3.33±0.03 min; N=45). […]

[3] = 19.6 °C, conc >0.3 mM, dil not given
[4] = 19.6 °C, dil 1 (liposomes 20 mg/mL; Gadovist 3.1 or 3 mM), Gadovist 3 mM
[5] = 19.6 °C, dil 1 (liposomes 20 mg/mL; Gadovist 3.1 or 3 mM), Gadovist 3.1 mM
[6] = 35.5 °C, conc >0.3 mM, dil not given

T1 (s) 1param [1, 3]: 2.033 s
T1 (s) 3param [1, 3]: 2.061 s
T1 (s) ImageJ [1, 3]: 2.061 s
T2 (s) 1param [1, 3]: 0.206 s
T2 (s) ImageJ [1, 3]: 0.1 s
T1 (s) 1param [1, 4]: 0.09174 s
T1 (s) 3param [1, 4]: 0.07712 s
T1 (s) ImageJ [1, 4]: 0.092 s
T2 (s) 1param [1, 4]: 0.04691 s
T2 (s) 3param [1, 4]: 0.0488 s
T2 (s) ImageJ [1, 4]: 0.047 s
T1 (s) 1param [1, 5]: 0.072 s
T1 (s) 3param [1, 5]: 0.084 s
T1 (s) ImageJ [1, 5]: 0.084 s
T2 (s) 1param [1, 5]: 0.0431 s and 0.0426 s
T2 (s) 3param [1, 5]: 0.0422 s and 0.0419 s
T2 (s) ImageJ [1, 5]: 0.042 s
T1 (s) 1param [1, 6]: 2.602 s
T1 (s) 3param [1, 6]: 2.617 s
T1 (s) ImageJ [1, 6]: 2.606 s
T2 (s) 1param [1, 6]: 0.153 s
T2 (s) ImageJ [1, 6]: 0.1 s
T1 (s) 1param ([1]; 39.5 °C, dil 1 (Gadovist 3 mM)): 0.1297 s
T1 (s) 3param ([1]; 39.5 °C, dil 1 (Gadovist 3 mM)): 0.1138 s
T1 (s) ImageJ ([1]; 39.5 °C, dil 1 (Gadovist 3 mM)): 0.13 s
T2 (s) 1param ([1]; 39.5 °C, dil 1 (Gadovist 3 mM)): 0.05335 s
T2 (s) 3param ([1]; 39.5 °C, dil 1 (Gadovist 3 mM)): 0.05578 s
T2 (s) ImageJ ([1]; 39.5 °C, dil 1 (Gadovist 3 mM)): 0.053 s
r1 (relaxometry value) ([1]; measured at 7T Magnet): 4.8
Compound: O=C([O-])CN1CCN(CC(=O)[O-])CCN([C@H](CO)[C@H](O)CO)CCN(CC(=O)[O-])CC1.[Gd+3] (racemic) [Gadovist]

clearance of topotecan from the blood pool ([2]; i.v. tail vein, matched concentration, followed 4 h): cleared from the blood pool in mins
fraction unbound ([2]; mouse, 'spiked' blood samples, previous results, read-out: loss of topotecan due to protein binding): 0.8 to 0.85
Compound: CC[C@@]1(O)C(=O)OCc2c1cc1n(c2=O)Cc2cc3c(CN(C)C)c(O)ccc3nc2-1 [free topotecan, topotecan]
